Converted amounts (≈) assume the structure as drawn. “And” between values parts separate entries of the source, which are not always exact repeats. Equal values may be shown once. One block for each compound: values may come before it.
Legend:
[1] = system: S. aureus ATCC 6538; test: MIC determination, S. aureus; format: cell-based, Staphylococcus aureus; details: Staphylococcus aureus, ATCC6538; serial dilutions, triplicate
Protocol: (§1) Serial dilutions of the test compounds were tested to determine their MIC against the most susceptible organisms. The MIC was expressed as the lowest concentration which inhibited the visible growth of the corresponding microorganism. All assays were performed in triplicate.

[2] = system: B. subtilis ATCC 6633; test: MIC determination, B. subtilis; format: cell-based, Bacillus subtilis; details: serial dilutions, triplicate
Protocol: as §1

[3] = system: P. aeruginosa ATCC 27953; test: Inhibition of exopolysaccharide (EPS) production; format: cell-based, Pseudomonas aeruginosa; details: means ± standard errors
Protocol: The inhibition of exopolysaccharide production by P. aeruginosa ATCC 27953 using quinazolinone derivatives was assessed according to total carbohydrate measurement.
P. aeruginosa’s biofilm was grown in the presence or absence of compounds (19, 20). Cells were incubated for 1 h with an equal volume of 5% (v/v) phenol and 5 × volume of concentrated sulfuric acid containing 0.2% (w/v) hydrazine sulphate then centrifuged at 10,000 g for 10 min (Z 326 K, HERMLE Labortechnik GmbH, Wehingen, Germany). The optical density of the supernatant was measured at 490 nm and the reduction in EPS was calculated as follows: EPSquantification%=OD490ofcontrol-OD490oftest/OD490ofcontrol×100

[4] = system: B. cereus ATCC 6629; test: MIC determination, B. cereus; format: cell-based, Bacillus cereus; details: serial dilutions, triplicate
Protocol: as §1

[5] = system: P. aeruginosa ATCC 27953; test: Bacterial cell surface hydrophobicity (CSH) assay (MATH / BATH); format: cell-based, Pseudomonas aeruginosa; details: increasing concentrations, toluene partition (Fig. 6)
Protocol: The effect of the test compounds 19 and 20 on cell surface hydrophobicity was investigated via the microbial or bacterial adherence to hydrocarbons (MATH / BATH) assay. Exponentially growing culture of P. aeruginosa ATCC 27953 incubated with or without test compounds were centrifuged, the pellets were re-suspended and OD600 was measured using UV/Vis spectrophotometer (Jasco V-630, Tokyo, Japan) to give Ao. The re-suspended cells were vigorously mixed with toluene followed by measuring the OD600 of the aqueous phase to give At. The hydrophobicity index was calculated as follows: Hydrophobicityindex=Ao-At/Ao×100

[6] = system: Pseudomonas aeruginosa ATCC 27953; test: Twitching motility assay; format: cell-based; details: starting from sub-MIC equal to half the MIC dose
Protocol: 5 µL of overnight-grown bacteria were stab-inoculated into Luria Bertani (LB) soft or quasi-solid plates containing 0.3% agar mixed with different concentrations of compounds 19, 20 and further incubated overnight in an upright position. The visible detectable distance of corrugated trails of twitching zones, away from the inoculation center at the petri dish-agar interface, was measured afterwards. The results were recorded as the average of several diameters’ measurements. DMF was used as a negative control. The experiments were performed in triplicate and represented as the mean of three measurements.

[7] = Cell viability MTT assay; format: cell-based; details: human, BJ1 cells (normal skin fibroblasts)
Protocol: Cell viability testing at 5 mg/ml was carried out by colorimetric MTT assay on human normal cell line BJ1 (skin fibroblasts) to investigate the toxicity of the most broad spectrum derivatives 9, 15, 16, 18, 19, 20 and 29 (Table 3). The viability of the cells treated with the aforementioned derivatives was more than 87% at 5 mg/ml concentration. This gives indication that the compounds are tolerated and nontoxic for human cells, as the cytotoxic dose was higher than the therapeutic dose on most of microorganisms. It is worth mentioning that the safe limit of the percent of dead cells is not an absolute value and could be more than 10% as reported in previous studies.
The most broad spectrum compounds were evaluated for their cytotoxic activity against BJ1 cell line using colorimetric MTT [3-(4,5-dimethylthiazol-2-yl)-2,5-diphenyltetrazolium bromide] assay.

[8] = system: B. cereus ATCC 6629; test: Agar well diffusion, B. cereus; format: cell-based; details: Bacillus cereus, ATCC6629; 100 μl of test compound 20 mg/ml in DMF; ciprofloxacin and fluconazole 30 μg/ml; 24 h; mean ± SD; read-out: diameters of inhibition zone, B. cereus ATCC 6629
Protocol: (§2) The antimicrobial activity was tested against Gram positive bacteria: Bacillus cereus (B. cereus ATCC 6629), Bacillus subtilis (B. subtilis ATCC 6633), Staphylococcus aureus (S. aureus ATCC 6538), Gram negative bacteria: Klebsiella pneumoniae (K. pneumoniae ATCC 13883), Pseudomonas aeruginosa (P. aeruginosa ATCC 27953) and Candida albicans (C. albicans ATCC 10231). Glycerol stocks were thawed upon need and propagated into nutrient broth at 37 °C. The antibacterial activity of the compounds 9-32 was carried out in vitro using the agar well diffusion method, originally reported by […] and Bauer and coworkers and described by the National Committee for Clinical Laboratory Standards (NCCLS). Bacterial strains, adjusted at […] (equivalent to 0.5 McFarland), were used to inoculate nutrient agar plates. 9-mm diameter wells were punched into the solidified nutrient agar plates using sterile cork borer and 100 μl samples of the test compounds, dissolved in dimethyl formamide (DMF) at 20 mg/ml concentrations, were added and allowed to diffuse at 4 °C for 2 h. Subsequently, the plates were incubated overnight in an upright position at 37 °C. DMF was used as a negative control while ciprofloxacin and fluconazole (30 μg/ml) served as positive controls. After 24 h incubation, the diameters of the growth inhibition zones were recorded in mm. Data was expressed as mean ± standard deviation of three replicates.

[9] = system: P. aeruginosa ATCC 27953; test: Biofilm inhibition assay (crystal violet); format: cell-based; details: Pseudomonas aeruginosa, ATCC27953, P. aeruginosa ATCC 27953, 24 h
Protocol: Compounds with potential activity against P. aeruginosa ATCC 27953 were tested for the respective biofilm inhibition. The assay was carried out in microtiter plate setup using crystal violet (CV) staining of adherent cells, as modified from.
After 24 h cultivation, the supernatant and planktonic cells were discarded, wells were washed with phosphate buffered saline (PBS) and biofilms were stained with 0.1% CV. CV was subsequently washed then, solubilized with 33% (v/v) glacial acetic acid. The absorbance was measured at 540 nm using SPECTROstar® Nano microplate reader (BMG LABTECH GmbH, Germany). The experiments were performed in triplicate and independently repeated three times. GraphPad Prism 6.0 software was used to estimate the IC50 values, which correspond to […].

[10] = system: P. aeruginosa ATCC 27953; test: Agar well diffusion, P. aeruginosa; format: cell-based; details: Pseudomonas aeruginosa, ATCC27953; 100 μl of test compound 20 mg/ml in DMF; ciprofloxacin and fluconazole 30 μg/ml; 24 h; mean ± SD; read-out: diameters of inhibition zone, P. aeruginosa ATCC 27953
Protocol: as §2

[11] = system: P. aeruginosa ATCC 27953; test: MIC determination, P. aeruginosa; format: cell-based, Pseudomonas aeruginosa; details: serial dilutions, triplicate
Protocol: as §1

[12] = system: K. pneumoniae ATCC 13883; test: MIC determination, K. pneumoniae; format: cell-based, Klebsiella pneumoniae; details: serial dilutions, triplicate
Protocol: as §1

[13] = system: B. subtilis ATCC 6633; test: Agar well diffusion, B. subtilis; format: cell-based; details: Bacillus subtilis, ATCC6633; 100 μl of test compound 20 mg/ml in DMF; ciprofloxacin and fluconazole 30 μg/ml; 24 h; mean ± SD; read-out: diameters of inhibition zone, B. subtilis ATCC 6633
Protocol: as §2

[14] = system: K. pneumoniae ATCC 13883; test: Agar well diffusion, K. pneumoniae; format: cell-based; details: Klebsiella pneumoniae, ATCC13883; 100 μl of test compound 20 mg/ml in DMF; ciprofloxacin and fluconazole 30 μg/ml; 24 h; mean ± SD; read-out: diameters of inhibition zone, K. pneumoniae ATCC 13883
Protocol: as §2

[15] = system: S. aureus ATCC 6538; test: Agar well diffusion, S. aureus; format: cell-based; details: Staphylococcus aureus, ATCC6538; 100 μl of test compound 20 mg/ml in DMF; ciprofloxacin and fluconazole 30 μg/ml; 24 h; mean ± SD; read-out: diameters of inhibition zone, S. aureus ATCC 6538
Protocol: as §2

[16] = system: methicillin-resistant Staphylococcus aureus (MRSA); parameters: method as in PMID 32927027; details: read-out: biofilm formation inhibition IC50; cited from earlier work

MIC [1]: 15000 ± 500 µg/mL (≈ 39700 µM)
MIC ([2]; Bacillus subtilis, ATCC6633): 500 µg/mL (≈ 1320 µM)
MIC, B. subtilis ATCC 6633 [2]: 500 ± 0 µg/mL (≈ 1320 µM)
MIC ([4]; Bacillus cereus, ATCC6629): 250 µg/mL (≈ 662 µM)
MIC, B. cereus ATCC 6629 [4]: 250 ± 0 µg/mL (≈ 662 µM)
IC50 [9]: 6.86 µM and 2.59 µg/mL
melting point: 156 °C
MIC ([11]; Pseudomonas aeruginosa, ATCC27953): 250 µg/mL (≈ 662 µM)
MIC, P. aeruginosa ATCC 27953 [11]: 250 ± 140 µg/mL (≈ 662 µM)
MIC ([12]; Klebsiella pneumoniae, ATCC13883): 500 µg/mL (≈ 1320 µM)
MIC, K. pneumoniae ATCC 13883 [12]: 500 ± 290 µg/mL (≈ 1320 µM)
Compound: O=c1c2ccccc2nc(CN2CCCC2)n1N=Cc1ccc([N+](=O)[O-])cc1 [Compound 20, 3-[(4-Nitrobenzylidene)amino]-2-(pyrrolidin-1-ylmethyl)quinazolin-4(3H)-one]
% EPS inhibition ([3]; 1/4 MIC): 21.51 ± 3.26%
% EPS inhibition ([3]; 1 MIC): 47.84 ± 3.00%
% EPS inhibition ([3]; 2 MIC): 61.50 ± 2.83%
effect on hydrophobicity index (CSH) [5]: reduced hydrophobicity index
effect on twitching motility [6]: remarkably blocked
viability at 5 mg/ml [7]: 88.1 ± 1.81%
zone of inhibition at 20000 µg/mL [8]: 16 ± 0.07 mm
zone of inhibition at 20000 µg/mL [10]: 21 ± 0.17 mm
zone of inhibition at 20000 µg/mL [13]: 10 ± 0.12 mm
zone of inhibition at 20000 µg/mL [14]: 16 ± 0.09 mm
zone of inhibition at 20000 µg/mL [15]: 13 ± 0.11 mm

Compound: Nc1nc(-c2cccc(Br)c2)cc(-c2nc3ccccc3c(=O)[nH]2)n1 [IV]
IC50 [16]: 20.7 µM

Source: paper PMC11785708, “Design and synthesis of new quinazolinone derivatives: investigation of antimicrobial and biofilm inhibition effects” (Molecular Diversity, 2024)
